Laboratory results from patent US20110209699A1, “COMBINATION OF DEHYDROEPIANDROSTERONE OR DEHYDROEPIANDROSTERONE-SULFATE WITH A LIPOXYGENASE INHIBITOR FOR TREATMENT OF ASTHMA OR CHRONIC OBSTRUCTIVE PULMONARY DISEASE” (priority 2003, published 2011).

Assays:
Intracellular adenosine = experiment: In vivo effect on adenosine levels in various rat tissues; design: species or system Fischer 344 rats; conditions: for Intracellular adenosine (nmols)/mg protein, Brain: rat brain, control 0.5 ± 0.04
Method: Folinic acid (50 mg/kg) was administered intraperitoneally once daily for fourteen days. […] Hearts were removed from animals and flash frozen in liquid nitrogen with 10 s of death. Liver and lungs were removed en bloc and flash frozen with 30 s of death. Brain tissue was subsequently dissected.

[1] = HPLC analysis of drug degradation during jet milling micronization; format: physicochemical; conditions: single and double pass jet-milled powder vs unmilled standard, HPLC peak area
Method: Approximately 1 g sample was passed through the jet mill, once, and approximately 2 g sample were passed through the jet mill twice. […] The resulting solution was sonicated for 3 minutes and appeared fully dispersed. The dispersed solutions were tested on a Malvern Mastersizer X with a small volume sampler (SVS) attachment. One sample of dispersed material was tested 5 times. The median particle size or D (v, 0.5) of unmilled material was 52.56 μm and the % RSD (relative standard deviation) was 7.61 for the 5 values. The D (v, 0.5) for a single pass through the jet mill was 3.90 μm and the % RSD was 1.27, and the D (v, 0.5) from a double pass through the jet mill 3.25 μm and the % RSD was 3.10.
Two vials (A; single-pass; 150 mg) and (B double-pass; 600 mg) of the micronized drug were available for determining drug degradation during jet milling micronization. […] The chromatographic peak area for the HPLC assay of the unmilled drug standard solution (10 mg/ml) gave a value of 23,427. […] The chromatographic peak areas for vials A and B were 11,979 and 11,677, respectively.

HT-29 SF cells [2] = experiment: Reversal of DHEA effect on cell cycle; format: cell-based, human; conditions: 25 μM DHEA
HT-29 SF cells [3] = experiment: Reversal of DHEA-mediated growth inhibition; format: cell-based, human; conditions: 25 μM DHEA, 48 hour treatment; MVA 2 μM, SQ 80 μM, CH 15 μg/ml, RN 30 μM each, DN 20 μM each
HT-29 SF cells [4] = experiment: DHEA effect on cell growth (Coulter counter); conditions: 0, 12.5, 25, 50 or 200 μM; cell number at 0, 24, 48, 72 hours
Method: Cell cultures, HT-29 SF cells, which represent a subline of HY-29 cells (ATCC, Rockville, Md.) and are adapted for growth in completely defined serum-free PC-1 medium (Ventrex, Portland, Me.), were obtained. Stock cultures were maintained in this medium at 37° C. (in a humidified atmosphere containing 5% CO2).

[5] = Solubility of DHEA-S as a function of NaCl concentration and temperature; format: physicochemical; conditions: for equilibrium constant Ksp=[DHEA-S-][Na+]: slope of solubility vs reciprocal sodium concentration
Excerpt: Inhalation of pure water can produce a cough stimulus. […] The temperature effect is weaker at high NaCl concentrations.

HT-29 SF cells [6] = experiment: DHEA effect on cell cycle (flow cytometry); format: cell-based, human; conditions: 25, 50 or 200 μM; 24, 48, 72 hours; propidium iodide DNA content
[7] = Physicochemical testing before and after micronization; conditions: for Particle size (D50%): laser diffraction; for Water (% w/w): Karl Fischer
Method: Surface area is determined using five point BET analyses are performed with nitrogen as the adsorbing gas (P/Po=0.05 to 0.30) using a Micromeritics TriStar surface area analyzer. Particle size distributions are measured by laser diffraction using a Micromeritics Saturn Digisizer where the particles are suspended in mineral oil with sodium dioctyl sodium sulfosuccinate as a dispersing agent. Drug substance water content is measured by Karl Fischer titration (Schott Titroline KF). Pure water is used as the standard and all relative standard deviations for triplicates are less than 1%. Powder is added directly to the titration media.

[8] = test system: rat peritoneal mast cells; experiment: Mast cell degranulation (histamine secretion) after compound 48/80; format: cell-based; conditions: at 0.1 uM; 0.1 μg/ml compound 48/80; 2 min at 37° C.
Excerpt: Leukotrienes are synthesized—though not exclusively by the mast cell (Gilchrist, M., McCauley, S. D., & Befus, A. D. (2004) Expression, localization, and regulation of NOS in human mast cell lines: effects on leukotriene production. Blood 104, 462-469). We determined whether DHEA-sulfate would reduce mast cell degranulation after stimulation with compound 48/80 in rat peritoneal mast cells. Mast cell degranulation was quantified by measurement of histamine, another substance contained within the secretory granules of mast cells. The release of histamine is believed to parallel the release of leukotrienes.
Freshly isolated rat peritoneal mast cells (2×10^5 cells) were pre-incubated for 5 min at 37° C. in a Balanced Salt Solution containing 150 mM NaCl (pH 7.4), 2.7 mM KCl, 0.9 mM CaCl2, 4 mM Na2HPO4, 2.7 mM KH2PO4, 1.75 mg/ml BSA and 0.1 μg/ml compound 48/80.
Following incubation, the mixture is cooled to 4° C. then centrifuged at 4500 rpm for 5 min. The supernatant is collected and mixed for 30 min at 4° C. with 5% TCA (trichloroacetic acid) to cause protein precipitation. […]
The amount of secreted histamine is quantified by measuring the fluorescence intensity at λex=360 nm and λem=450 nm using a spectrofluorimeter (GeminiXS, Molecular Devices). The results are expressed as a percent inhibition of control histamine secretion.

[9] = Short-term solution stability of nebulizer formulation; format: physicochemical; conditions: 10 mg/mL in 0.12% NaCl, clear glass vials
Method: Aliquots of this solution are filled into clear glass vials and stored at RT (24-26° C.) and at 40° C. The samples are checked daily for DHEA-S content, DHEA content, and appearance. For each time point, duplicate samples are withdrawn and diluted from each vial. […] The study is stopped on day three. […] The solution should easily be stable for the day of reconstitution in a clinical trial. The following section describes the aerosol properties of this formulation.

[10] = calculated for 20 mM Na+ (0.12% NaCl), Ksp 1316 mM^2, 15° C.

SMILES: Nc1nc(=O)c2c([nH]1)NCC(CNc1ccc(C(=O)N[C@@H](CCC(=O)O)C(=O)O)cc1)N2C=O (mixture of isomers) [Folinic Acid]
- Intracellular adenosine (nmols)/mg protein, Brain (Intracellular adenosine; once daily 14 days, DHEA 300 mg/kg or methyltestosterone 40 mg/kg by gavage, folinic acid 50 mg/kg i.p., alone or combined, mean ± SEM): 0.72 ± 0.09 nmols/mg protein
- Intracellular adenosine (nmols)/mg protein, Heart (Intracellular adenosine; rat heart, once daily 14 days, DHEA 300 mg/kg or methyltestosterone 40 mg/kg by gavage, folinic acid 50 mg/kg i.p., alone or combined, mean ± SEM, control 10.6 ± 0.6): 12.4 ± 2.1 nmols/mg protein
- Intracellular adenosine (nmols)/mg protein, Liver (Intracellular adenosine; rat liver, once daily 14 days, DHEA 300 mg/kg or methyltestosterone 40 mg/kg by gavage, folinic acid 50 mg/kg i.p., alone or combined, mean ± SEM, control 14.5 ± 1.0): 16.4 ± 2.4 nmols/mg protein
- adenosine levels when administered alone (Intracellular adenosine; rat, in vivo): increase in adenosine levels for all organs studied
- effect of coadministration on steroid-mediated adenosine depletion (Intracellular adenosine; rats, folinic acid 50 mg/kg i.p. with DHEA or methyltestosterone, 14 days): completely abrogated steroid-mediated adenosine depletion

SMILES: C[C@]12CC[C@H](OS(=O)(=O)[O-])CC1=CC[C@@H]1[C@@H]2CC[C@]2(C)C(=O)CC[C@@H]12.[Na+] [Anhydrous DHEA-S]
- drug degradation during jet milling micronization [1]: no detectable degradation

SMILES: CC(C)CCC[C@@H](C)[C@H]1CC[C@H]2[C@@H]3CC=C4C[C@@H](O)CC[C@]4(C)[C@H]3CC[C@]12C [CH, cholesterol]
- prevention of DHEA-induced S phase depletion by medium supplement (HT-29 SF cells [2]; 48 hours): very little effect
- prevention of DHEA-induced S phase depletion by medium supplement (HT-29 SF cells [2]; 72 hours): no effect
- reversal of DHEA-induced growth inhibition by medium supplement (HT-29 SF cells [3]): no such effect

SMILES: C[C@]12CC[C@H](O)CC1=CC[C@@H]1[C@@H]2CC[C@]2(C)C(=O)CC[C@@H]12 [DHEA, 3β-hydroxyandrost-5-en-17-one]
- inhibition of growth (HT-29 SF cells [4]): time- and dose-dependent inhibition of growth
- solubility in water ([5]; water): insoluble
- Intracellular adenosine (nmols)/mg protein, Heart (Intracellular adenosine; rat, in vivo): 6.7 ± 0.5
- effect on cell cycle distribution (HT-29 SF cells [6]): G1 block in HT-29 SF cells in a time- and dose-dependent manner

SMILES: CC12CCC3C(CC=C4CC(OS(=O)(=O)[O-])CCC43C)C1CCC2=O.[Na+] (stereo not drawn) [DHEA-S dihydrate]
- Particle size (D50%) ([7]; Bulk, before micronization): 31 microns
- Water (% w/w) ([7]; Bulk): 8.5 % w/w
- Particle size (D50%) ([7]; Micronized (jet mill)): 3.7 microns
- Water (% w/w) ([7]; Micronized): 8.4 % w/w
- Surface area (m^2/g) ([7]; Micronized, five point BET): 4.9 m^2/g

SMILES: C[C@]12CC[C@H](OS(=O)(=O)[O-])CC1=CC[C@@H]1[C@@H]2CC[C@]2(C)C(=O)CC[C@@H]12.[Na+] [DHEA-S, sodium dehydroepiandrostenone sulfate]
- equilibrium constant Ksp=[DHEA-S-][Na+] ([5]; RT (24-25° C.)): 2236 mM^2
- estimated DHEA-S solution concentration [5, 10]: 10.7 mg/mL
- estimated DHEA-S- solution concentration [5, 10]: 27.5 mM
- equilibrium constant Ksp=[DHEA-S-][Na+] ([5]; refrigerated (7-8° C.)): 665 mM^2
- maximal effect, percent inhibition of control histamine secretion [8]: 69.9%
- solution appearance on storage ([9]; 40° C.): became cloudy after two days of storage
- solution appearance on storage ([9]; RT (24-26° C.)): slight precipitate is observed on the third day

SMILES: C[C@@](O)(CCO)CC(=O)O [MVA, mevalonic acid]
- prevention of DHEA-induced S phase depletion by medium supplement (HT-29 SF cells [2]; 48 hours): partially prevented this effect
- prevention of DHEA-induced S phase depletion by medium supplement (HT-29 SF cells [2]; 72 hours): not after 72 hours
- reversal of DHEA-induced growth inhibition by medium supplement (HT-29 SF cells [3]): partially overcome

SMILES: C[C@]12CCC(=O)C=C1CC[C@@H]1[C@@H]2CC[C@@]2(C)[C@H]1CC[C@]2(C)O [Methyltestosterone]
- Intracellular adenosine (nmols)/mg protein, Brain (Intracellular adenosine; methyltestosterone 120 mg/kg, alone or + folinic acid 50 mg/kg, mean ± SEM): 0.32 ± 0.03 nmols/mg protein
- Intracellular adenosine (nmols)/mg protein, Heart (Intracellular adenosine; rat heart, methyltestosterone 120 mg/kg, alone or + folinic acid 50 mg/kg, mean ± SEM, control 10.6 ± 0.6): 6.0 ± 0.4 nmols/mg protein
- Intracellular adenosine (nmols)/mg protein, Liver (Intracellular adenosine; rat liver, methyltestosterone 120 mg/kg, mean ± SEM, control 14.5 ± 1.0): 5.1 ± 0.5 nmols/mg protein
- Intracellular adenosine (nmols)/mg protein, Liver (Intracellular adenosine; rat, in vivo): 16.5 ± 0.9 nmols/mg protein

SMILES: CC(C)=CCC/C(C)=C/CC/C(C)=C/CC/C=C(\C)CC/C=C(\C)CCC=C(C)C [SQ, squalene]
- reversal of DHEA-induced growth inhibition by medium supplement (HT-29 SF cells [3]): no such effect
